Laboratory results as given in patent US20240293367A1, “METHODS OF TREATING DISORDERS WITH A […]” (Cybin IRL Limited, priority 2023, published 2024).
Several values for one entry are separate records, joined by “and”; a condition that tells them apart may be missing. Identical values can stand only once.

Tests used:
[1] = Safety and tolerability (adverse events) in the Phase I/IIa study
[2] = VAS ratings of 'Any drug effect' in the Phase I/IIa study; type: in vivo, human
Source text: The visual analogue scale (VAS) is a psychometric response scale that can be used in questionnaires. It is a measurement instrument for subjective characteristics or attitudes that cannot be directly measured. When responding to a VAS item, respondents specify their level of agreement to a statement by indicating a position along a continuous line between two end points, usually a horizontal 100-mm line marked from “not at all,” “definitely not,” or the like, on the left to “extremely,” “definitely so,” or the like, on the right. The Bond and Lader VAS involves the subject indicating (with vertical marks) on sixteen horizontal 100-mm visual analogue scales how he/she feels. From these measurements, three main factors are calculated as described by Bond and Lader: alertness (from nine scores), contentedness (often called mood; from five scores), and calmness (from two scores). The Bowdle VAS and Drug Rating VAS provides the subject with items of the drug rating questionnaire: feel drug, like drug, and dislike drug. The VAS any drug effect involves the subject indicating (with vertical marks) on horizontal 100-mm visual analogue scales with the any drug effects item (“I can feel any drug effect”). In some embodiments, the subject has a maximum VAS score (e.g., Bond and Lader VAS, Bowdle VAS and Drug Rating VAS, and/or VAS any drug effect) of ≥60 mm after treatment. In some embodiments, the subject has a VAS score (e.g., Bond and Lader VAS, Bowdle VAS and Drug Rating VAS, and/or VAS any drug effect) of greater than or equal to 60 mm, 65 mm, 70 mm, 75 mm, 80 mm, 85 mm, 90 mm, or 95 mm, after treatment. In some embodiments, at least 50%, at least 55%, at least 60%, at least 65%, at least 70%, at least 75%, at least 80%, at least 85%, at least 90% of subjects treated with the methods described herein report a maximum VAS score (e.g., Bond and Lader VAS, Bowdle VAS and Drug Rating VAS, and/or VAS any drug effect) of greater than or equal to 60 mm, 65 mm, 70 mm, 75 mm, 80 mm, 85 mm, 90 mm, or 95 mm following treatment. In some embodiments, the subject has a maximum VAS any drug effect score of ≥60 mm after treatment. In some embodiments, the subject has a VAS any drug effect score of greater than or equal to 60 mm, 65 mm, 70 mm, 75 mm, 80 mm, 85 mm, 90 mm, or 95 mm, after treatment. In some embodiments, at least 50%, at least 55%, at least 60%, at least 65%, at least 70%, at least 75%, at least 80% of subjects treated with the methods described herein report a maximum VAS any drug effect score of greater than or equal to 60 mm, 65 mm, 70 mm, 75 mm, 80 mm, 85 mm, 90 mm, or 95 mm following treatment.
A visual analogue scale will be completed by all participants on each day of dosing (Day 1 and Day 8 or Day 22) and will consist of a 100 mm bipolar line with the far left side of the line marked not at all, and the far right side of the line marked extremely. Participants will be asked “Right now, do you feel any drug effects at all?” and participants in response will make a vertical mark on the line on study dosing days predose and at 0.5, 1, 2, 4, 6, 8 and 12 hours postdose.

[3] = female, rat, in vivo, 40 mg/kg
[4] = all cohorts, psilocin-d10 n = 35
[5] = oral, equivalent doses, male Beagle dogs

SMILES: [2H]C([2H])([2H])N(C([2H])([2H])[2H])C([2H])([2H])C([2H])([2H])c1c[nH]c2cccc(O)c12 [psilocin-d10, 3-(2-(bis(methyl-d3)amino)ethyl-1,1,2,2-d4)-1H-indol-4-ol]
- nausea at least possibly related to study treatment ([1]; 8 mg): 2 out of 4
- nausea at least possibly related to study treatment ([1]; 12 mg): 6 out of 24
- nausea at least possibly related to study treatment ([1]; 16 mg): 3 out of 12
- headache at least possibly related to study treatment ([1]; Cohort 3): 1 subject
- headache at least possibly related to study treatment ([1]; Cohort 4): 1 subject
- vomiting at least possibly related to study treatment ([1]; Cohort 4): 1 subject
- vomiting at least possibly related to study treatment ([1]; Cohort 6): 3 subjects
- discontinuation due to AEs ([1]; all cohorts): No participants discontinued due to AEs
- Drug-related, treatment-emergent adverse events: At least one AE ([1]; all cohorts incl. healthy volunteers, psilocin-d10 n = 35): 21 (60.0) n (%)
- Drug-related TEAE: Affect lability [1, 4]: 1 (2.9) n (%)
- Drug-related TEAE: Anxiety [1, 4]: 2 (5.7) n (%)
- Drug-related TEAE: Blood pressure increased [1, 4]: 5 (14.3) n (%)
- Drug-related TEAE: Confusional state [1, 4]: 1 (2.9) n (%)
- Drug-related TEAE: Dizziness [1, 4]: 1 (2.9) n (%)
- Drug-related TEAE: Eructation [1, 4]: 1 (2.9) n (%)
- Drug-related TEAE: Headache [1, 4]: 3 (8.6) n (%)
- Drug-related TEAE: Nasal congestion [1, 4]: 1 (2.9) n (%)
- Drug-related TEAE: Nausea [1, 4]: 6 (17.1) n (%)
- Drug-related TEAE: Panic Attack [1, 4]: 1 (2.9) n (%)
- Drug-related TEAE: Tachycardia [1, 4]: 1 (2.9) n (%)
- Drug-related TEAE: Vomiting [1, 4]: 2 (5.7) n (%)
- tolerability ([1]; dosage levels up to 16 mg, 8 healthy volunteers and 38 participants with MDD): well tolerated without significant adverse effects
- subjects reporting maximum VAS-Any drug effect readings above 60 mm ([2]; 8 mg oral, Cohort 2, 4 healthy volunteers): 75%
- Observed Mean Maximum VAS - Any drug effect ([2]; 8 mg oral, Cohort 2 Day 8, NHV, N = 4): 77.2
- individual VAS-Any drug effect scores of subjects with meaningful scores ([2]; 8 mg, Cohort 2): 100 mm and 97 mm and 89 mm
- subjects reporting maximum VAS-Any drug effect readings above 60 mm ([2]; 10 mg oral, Cohort 3, 3 healthy volunteers): 66%
- Observed Mean Maximum VAS - Any drug effect ([2]; 10 mg oral, Cohort 3 Day 8, NHV, N = 3): 78.3
- individual VAS-Any drug effect scores of subjects with meaningful scores ([2]; 10 mg, Cohort 3): 100 mm
- Observed Mean Maximum VAS - Any drug effect ([2]; 12 mg oral, Cohorts 4 and 5 MDD, Day 1 or Day 22, blinded data incl. placebo subjects): 80.7 and 80.7^3
- median maximum VAS-Any drug effect score ([2]; 12 mg, Cohorts 4 and 5 MDD): 100 mm
- Observed Mean Maximum VAS - Any drug effect ([2]; 16 mg oral, Cohort 6 MDD, Day 1 or Day 22, blinded data incl. placebo subjects, excluding vomited doses): 89.2 and 89.2^2,3
- median maximum VAS-Any drug effect score ([2]; 16 mg, Cohort 6 MDD): 100 mm
- subjects reporting maximum VAS-Any drug effect readings above 60 mm ([2]; 16 mg, Cohort 6 MDD): 79.2%
- AUC(0-t) [3]: 3630 ng·h/mL
- Cmax [3]: 343 ng/mL
- difference in systemic exposure versus psilocin (dogs): ~30%
- higher concentration (Cmax) compared to psilocin after psilocybin [5]: 31%
- higher exposure (AUC) compared to psilocin after psilocybin [5]: 38%
- oral availability (oral, female dogs): 91.3%
